Source: patent publication US6589980B2, “Substituted 10,11-benzo[b]fluoren-10-ones as estrogenic agents” (Wyeth, priority 2001, dated 2003)

How the values were obtained:
human ERβ = biological target: T1, human ERβ (Homo sapiens, UniProt Q92731); test: Competition with [3H]-17β-estradiol for binding to ERβ ligand binding domain; settings: crude E. coli lysate expressing ER ligand binding domains (D,E,&F); 2 nM [3H]-17β-estradiol; 5-15 hours at room temperature
T1 construct: made in house; host or cells: E. coli (crude lysate)
Experimental: (§1) This test procedure provides the methodology for one to determine whether a particular compound binds to the estrogen receptor (and is therefore “estrogenic”) and whether there is selectivity for ERα or ERβ. […] The procedure used is briefly described below. A crude lysate of E. coli expressing the estrogen receptor ligand binding domains (D,E, & F) of human ERα or ERβ was prepared. Both receptors and compounds were diluted in 1×Dulbecco's PBS (DPBS) supplemented with 1 mM EDTA. […] After between 5 and 15 hours at room temperature, the plates were washed with DPBS/1 mM EDTA and bound radioactivity determined by liquid scintillation counting.

human ERα = biological target: T2, human ERα (Homo sapiens, UniProt P03372); test: Competition with [3H]-17β-estradiol for binding to ERα ligand binding domain; settings: crude E. coli lysate expressing ER ligand binding domains (D,E,&F); 2 nM [3H]-17β-estradiol; 5-15 hours at room temperature
T2 construct: made in house; host or cells: E. coli (crude lysate)
T2 sequence (P03372 311-547 limits assumed): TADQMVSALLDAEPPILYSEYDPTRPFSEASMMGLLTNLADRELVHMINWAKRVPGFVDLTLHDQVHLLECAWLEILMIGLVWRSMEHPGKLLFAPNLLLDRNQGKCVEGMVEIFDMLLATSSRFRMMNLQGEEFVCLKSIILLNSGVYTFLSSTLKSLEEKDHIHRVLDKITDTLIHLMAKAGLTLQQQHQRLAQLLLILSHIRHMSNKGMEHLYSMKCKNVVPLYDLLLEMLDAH
Experimental: as §1

T1 sequence (Q92731 264-498 limits assumed): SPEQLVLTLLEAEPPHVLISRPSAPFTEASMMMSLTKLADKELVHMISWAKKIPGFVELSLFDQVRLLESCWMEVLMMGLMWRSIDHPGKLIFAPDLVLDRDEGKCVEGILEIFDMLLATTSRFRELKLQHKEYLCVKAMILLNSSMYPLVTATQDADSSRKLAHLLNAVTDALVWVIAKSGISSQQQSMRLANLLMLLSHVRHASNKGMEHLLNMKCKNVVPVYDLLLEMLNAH

IC50 (human ERβ) [nM] | IC50 (human ERα) [nM] | melting point [°C] | SMILES
2 | – | – | O=c1c2c(O)cc(O)cc2oc2oc3cc(O)ccc3c12 [2,6,8-Trihydroxy-10,11-dioxa-benzo[b]fluoren-5-one]
28 | 482 | > 300 | O=c1c2ccc(O)cc2oc2oc3cc(O)ccc3c12 [2,8-Dihydroxy-10,11-dioxa-benzo[b]fluoren-5-one]
– | 2730 | – | COc1cc(O)c2c(=O)c3c(oc2c1)oc1cc(O)ccc13 [2.6-Dihvdroxy-8-methoxy-10,11-dioxa-benzo[b]fluoren-5-one]
